This note sets out measurements from ChEMBL document CHEMBL1201862, “PubChem BioAssay data set” (2004).

Molecules are shown by their SMILES.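 1) Cells in 96-well plates. 2) Compound, 48 h, 5 concentrations. 3) Linear interpolation between surrounding doses. 4) Unreached endpoint = highest concentration. GI50 marks 50% less growth.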 The source made the active and inactive calls. Rule as the data show it: active = GI50 up to about 1.1 µM and inactive = higher. Bounds are passed on as bounds.

Assay in all cases: NCI-60 cell line screen, 48 h
The test system of assay [1] is NCI-H460.
Assay [2] concerns COLO 205.
For assay [3], the system named is T47D.
Assay [4] has as its system LOX IMVI.
Assay [5] has as its system UO-31.
Assay [6] concerns MOLT-4.
For assay [7], the system named is HCC 2998.
Assay [8] has as its system SK-MEL-2.
For assay [9], the system named is RPMI-8226.
The subject of assay [10] is SNB-19.
In assay [11] the test system is SNB-75.
Assay [12] has as its system MDA-N.
The subject of assay [13] is SW-620.
The test system of assay [14] is U-251.
Assay [15] has as its system SK-MEL-28.
Assay [16] deals with A549.
The test system of assay [17] is EKVX.
The subject of assay [18] is Malme-3M.
Assay [19] concerns SF-295.

As to `Cc1nc(N)c(N2CCN(C(=O)O)CC2)c(O)n1`, the GI50 in [1], in assay [2], in assay [3], in [4], in [5] and in [6] was > 100 µM (inactive) throughout. Further, the GI50 in [7], in [8], in [9], in [10], in [11] and in assay [12] was > 100 µM (inactive) throughout. Besides, the GI50 in [13], in assay [14], in assay [15], in [16], in [17] and in assay [18] was > 100 µM (inactive) each time. Besides, in [19], the GI50 is > 100 µM (inactive).
Regarding `CN(C)c1ccc(C=C2C(=O)NC(=S)NC2=O)c2ccccc12`, the GI50 is > 100 µM (inactive) in assay [1]; > 100 µM (inactive) in assay [2]; > 100 µM (inactive) in assay [3]; 26.9 µM (inactive) in [4]; 60.4 µM (inactive) in [5]; 29.6 µM (inactive) in assay [6]. Besides, the GI50 was > 100 µM (inactive) in assay [7]; 62.8 µM (inactive) in assay [8]; 39.4 µM (inactive) in assay [9]; 61.2 µM (inactive) in [10]; 30.1 µM (inactive) in assay [11]; 42.7 µM (inactive) in [12]. The GI50 is 46.6 µM (inactive) in assay [13]; 34.3 µM (inactive) in assay [14]; 77.4 µM (inactive) in [15]; > 100 µM (inactive) in assay [16]; > 100 µM (inactive) in [17]; 49.9 µM (inactive) in assay [18]. Also, in assay [19], the GI50 was > 100 µM (inactive).
For `Cc1nc(N)nc(N)c1N1CCN(Cc2ccccc2)CC1`, the GI50 in [1] was 5.87 µM (inactive); in [2], 31.8 µM (inactive); in assay [3], > 100 µM (inactive); in [4], 8.15 µM (inactive); in assay [5] it was 45.4 µM (inactive); in [6], 29.7 µM (inactive). Also, the GI50 in [7] is 25.2 µM (inactive); in assay [8] it was 64.6 µM (inactive); in assay [9], > 39 µM (inactive); in assay [10] it was 55.5 µM (inactive); in assay [11] it was > 52.5 µM (inactive); in assay [12], 21.9 µM (inactive). The GI50 in assay [13] was 38.9 µM (inactive); in assay [14], 48.8 µM (inactive); in [15] it was > 78.9 µM (inactive); in assay [16], 3.56 µM (inactive); in [17] it was > 53.6 µM (inactive); in [18], 14.2 µM (inactive). Further, the GI50 in [19] is 7.06 µM (inactive).
With `O=[N+]([O-])/C=C/c1cc2ccc3ccccc3c2[nH]1`, the GI50 in assay [1] was 2.11 µM (inactive); in assay [2], 1.75 µM (inactive); in [3], 1.31 µM (inactive); in [4], 1.23 µM (inactive); in assay [5], 1.56 µM (inactive); in [6], 0.776 µM (active). Further, the GI50 is 1.92 µM (inactive) in assay [7]; 0.796 µM (active) in assay [8]; 0.229 µM (active) in [9]; 2.66 µM (inactive) in [10]; 1.79 µM (inactive) in [11]; 1.67 µM (inactive) in assay [12]. Further, the GI50 was 1.49 µM (inactive) in assay [13]; 1.34 µM (inactive) in [14]; 2.01 µM (inactive) in assay [15]; 2.16 µM (inactive) in assay [16]; 2.76 µM (inactive) in [17]; 1.55 µM (inactive) in assay [18]. The GI50 in [19] was 2.4 µM (inactive).
